Earlier results on 1 molecule are cited in US20260199368A1, “[…] SYSTEM CONTAINING REMIMAZOLAM” (LTS LOHMANN THERAPIE-SYSTEME AG, priority 2022, published 2026).

For this series the following is noted: intranasal administration; cited from earlier work.

Consider `COC(=O)CC[C@@H]1N=C(c2ccccn2)c2cc(Br)ccc2-n2c(C)cnc21` [remimazolam, methyl 3-{(4S)-8-bromo-1-methyl-6-(pyridin-2-yl)-4/-/-imidazo[1,2-a][1,4]benzodiazepin-4-yl}propanoate], for which the bioavailability entry is on record as “about 50%”.
